We go through one molecule from US20060009470A1, “Method for specifically potentiating N-type Ca2+ channel activity” (Shuji KANEKO, priority 2001, published 2006).

Holding throughout (assay type): cell-based, rabbit
In assay [1] the target is T1, α1E channel (voltage-dependent calcium channel α1E with α2δ1 and β1b) (Oryctolagus cuniculus, UniProt Q02343).
T1 construct: expressed in transfected cells; host or cells: Xenopus laevis oocytes injected with mRNAs
Put plainly: two electrode voltage-clamp, Ba2+ current in Xenopus oocytes expressing α1E channel. Conditions: 100 nM test compound; 0 mV, 200 ms test pulse; Xenopus oocyte. As for the experimental part: (§1) Ovary was removed from the abdominal cavity of Xenopus laevis and treated with collagenase to remove follicle covering the oocyte (Kinoshita et al., J. Biol. Chem. 276, 28731-28738 (2001)). A combination of three kinds of mRNAs (16.7 ng each) of voltage-dependent calcium channel subunits α1A, α1B or α1E of rabbit and human α2δ1 and β1b (prepared according to the method described in Kinoshita et al., supra or a similar method) was mixed and injected into the oocyte and this was incubated in modified Birth's saline (88 mM NaCl, 1 mM KCl, 0.41 mM CaCl2, 0.33 mM Ca(NO3)2, 0.82 mM MgSO4, 2.4 mM NaHCO3, 7.5 mM Tris-HCl, 10 U/ml penicillin, 10 μg/ml streptomycin, pH 7.6) at 22° C. for 2 to 4 days.
(§2) The oocyte prepared in the above was placed in a chamber filled with a Ba^2+-containing recording liquid (10 mM Ba(OH)2, 90 mM NaOH, 2 mM KOH, 5 mM Hepes, 0.3 mM niflumic acid, methanesulfonic acid, pH 7.4) and fixed at −80 mV using two glass electrodes. A test pulse (200 ms width) toward 0 mV was applied at 30 second intervals and the whole-cell membrane current was measured. A +100 mV depolarization prepulse (100 ms width) that ends before 40 ms was applied every other pulse to eliminate the effect of G protein βγ subunit that binds with Ca^2+ channel to suppress opening (Kinoshita et al., supra). […]
(In general: In two-electrode clamp one electrode senses voltage and the other passes current.)

Assay [2] deals with T2, α1A channel (voltage-dependent calcium channel α1A with α2δ1 and β1b) (Oryctolagus cuniculus, UniProt P27884).
T2 construct: expressed in transfected cells; host or cells: Xenopus laevis oocytes injected with mRNAs
Put plainly: two electrode voltage-clamp, Ba2+ current in Xenopus oocytes expressing α1A channel. Conditions: 100 nM test compound; 0 mV, 200 ms test pulse; Xenopus oocyte. How it is done: as §1, §2

Assay [3] concerns the target T3, α1B channel (voltage-dependent calcium channel α1B with α2δ1 and β1b) (Oryctolagus cuniculus, UniProt Q05152).
T3 construct: expressed in transfected cells; host or cells: Xenopus laevis oocytes injected with mRNAs
Description: two electrode voltage-clamp, Ba2+ current in Xenopus oocytes expressing α1B channel. As for the experimental part:
as §1
The oocyte prepared in the above was placed in a chamber filled with a Ba^2+-containing recording liquid (10 mM Ba(OH)2, 90 mM NaOH, 2 mM KOH, 5 mM Hepes, 0.3 mM niflumic acid, methanesulfonic acid, pH 7.4) and fixed at −80 mV using two glass electrodes. A test pulse (200 ms width) toward 0 mV was applied at 30 second intervals and the whole-cell membrane current was measured. A +100 mV depolarization prepulse (100 ms width) that ends before 40 ms was applied every other pulse to eliminate the effect of G protein βγ subunit that binds with Ca^2+ channel to suppress opening (Kinoshita et al., supra). Based on the Ba^2+ current (IBa) as a Ca^2+ channel current, the leak current was corrected by P/4 protocol. N-(4-Acetyl-1-piperazinyl)-p-fluorobenzamide monohydrate (hereinafter to be also referred to as a test compound) was dissolved in the recording liquid containing Ba^2+ and applied.

T3 sequence (Q05152 whole entry): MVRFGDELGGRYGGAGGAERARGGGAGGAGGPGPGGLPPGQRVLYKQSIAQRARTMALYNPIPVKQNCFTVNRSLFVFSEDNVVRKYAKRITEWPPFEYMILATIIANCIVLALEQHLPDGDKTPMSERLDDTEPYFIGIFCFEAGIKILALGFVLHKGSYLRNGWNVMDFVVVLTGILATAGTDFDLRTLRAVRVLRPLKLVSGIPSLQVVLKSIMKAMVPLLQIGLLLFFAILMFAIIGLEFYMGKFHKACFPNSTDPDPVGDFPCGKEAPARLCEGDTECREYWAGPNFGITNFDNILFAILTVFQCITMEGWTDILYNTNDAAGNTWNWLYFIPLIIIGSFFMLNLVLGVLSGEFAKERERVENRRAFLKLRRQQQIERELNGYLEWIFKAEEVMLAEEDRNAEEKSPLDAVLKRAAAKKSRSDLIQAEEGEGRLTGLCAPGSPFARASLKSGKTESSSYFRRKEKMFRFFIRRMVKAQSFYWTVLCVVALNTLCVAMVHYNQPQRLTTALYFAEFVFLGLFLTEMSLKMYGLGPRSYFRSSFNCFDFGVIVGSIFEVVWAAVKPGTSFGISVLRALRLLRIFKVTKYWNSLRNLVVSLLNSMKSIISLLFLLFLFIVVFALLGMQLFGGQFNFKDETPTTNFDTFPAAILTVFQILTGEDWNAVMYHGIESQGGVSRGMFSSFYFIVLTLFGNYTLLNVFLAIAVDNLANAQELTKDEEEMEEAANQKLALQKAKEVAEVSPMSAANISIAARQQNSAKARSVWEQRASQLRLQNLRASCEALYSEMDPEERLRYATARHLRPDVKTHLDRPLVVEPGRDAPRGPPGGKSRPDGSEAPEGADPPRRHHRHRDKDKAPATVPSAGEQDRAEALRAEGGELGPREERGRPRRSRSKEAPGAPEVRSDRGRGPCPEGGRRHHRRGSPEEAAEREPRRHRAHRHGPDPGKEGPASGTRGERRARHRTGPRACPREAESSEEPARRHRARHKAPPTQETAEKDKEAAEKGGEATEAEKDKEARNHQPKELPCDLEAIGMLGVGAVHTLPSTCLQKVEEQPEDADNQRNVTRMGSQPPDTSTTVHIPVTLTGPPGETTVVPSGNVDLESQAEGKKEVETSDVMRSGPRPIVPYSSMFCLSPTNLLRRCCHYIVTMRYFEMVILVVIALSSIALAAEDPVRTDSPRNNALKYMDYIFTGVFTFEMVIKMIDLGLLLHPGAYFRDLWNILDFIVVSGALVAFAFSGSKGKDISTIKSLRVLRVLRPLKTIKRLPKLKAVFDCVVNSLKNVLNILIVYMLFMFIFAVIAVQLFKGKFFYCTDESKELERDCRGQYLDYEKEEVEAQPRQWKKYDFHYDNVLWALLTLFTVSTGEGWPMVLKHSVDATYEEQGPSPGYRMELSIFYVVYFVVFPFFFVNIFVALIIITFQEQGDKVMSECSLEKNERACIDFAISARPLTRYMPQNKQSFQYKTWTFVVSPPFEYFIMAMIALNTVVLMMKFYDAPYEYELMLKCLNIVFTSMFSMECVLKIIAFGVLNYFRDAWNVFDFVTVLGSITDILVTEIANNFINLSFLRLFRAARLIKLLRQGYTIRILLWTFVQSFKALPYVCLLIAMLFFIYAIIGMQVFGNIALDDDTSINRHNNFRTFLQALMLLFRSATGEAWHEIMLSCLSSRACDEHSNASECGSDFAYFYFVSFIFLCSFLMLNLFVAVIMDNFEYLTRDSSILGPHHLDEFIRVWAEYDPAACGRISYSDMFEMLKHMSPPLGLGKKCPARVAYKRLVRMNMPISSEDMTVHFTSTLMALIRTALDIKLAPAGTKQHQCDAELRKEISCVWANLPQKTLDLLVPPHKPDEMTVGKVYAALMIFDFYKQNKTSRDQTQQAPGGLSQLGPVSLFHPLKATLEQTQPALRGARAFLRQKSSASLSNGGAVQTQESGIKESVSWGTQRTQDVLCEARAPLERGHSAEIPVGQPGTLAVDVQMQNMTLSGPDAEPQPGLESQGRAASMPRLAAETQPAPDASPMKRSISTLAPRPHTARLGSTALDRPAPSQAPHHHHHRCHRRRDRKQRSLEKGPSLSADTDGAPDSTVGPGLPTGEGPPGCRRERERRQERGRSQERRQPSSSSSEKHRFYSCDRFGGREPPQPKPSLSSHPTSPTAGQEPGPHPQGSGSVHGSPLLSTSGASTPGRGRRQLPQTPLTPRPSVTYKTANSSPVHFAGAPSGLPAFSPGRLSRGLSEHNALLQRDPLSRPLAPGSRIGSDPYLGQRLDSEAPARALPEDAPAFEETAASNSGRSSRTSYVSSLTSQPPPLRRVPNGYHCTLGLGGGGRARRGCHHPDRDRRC
T3 sequence (P54289 25-956 partner): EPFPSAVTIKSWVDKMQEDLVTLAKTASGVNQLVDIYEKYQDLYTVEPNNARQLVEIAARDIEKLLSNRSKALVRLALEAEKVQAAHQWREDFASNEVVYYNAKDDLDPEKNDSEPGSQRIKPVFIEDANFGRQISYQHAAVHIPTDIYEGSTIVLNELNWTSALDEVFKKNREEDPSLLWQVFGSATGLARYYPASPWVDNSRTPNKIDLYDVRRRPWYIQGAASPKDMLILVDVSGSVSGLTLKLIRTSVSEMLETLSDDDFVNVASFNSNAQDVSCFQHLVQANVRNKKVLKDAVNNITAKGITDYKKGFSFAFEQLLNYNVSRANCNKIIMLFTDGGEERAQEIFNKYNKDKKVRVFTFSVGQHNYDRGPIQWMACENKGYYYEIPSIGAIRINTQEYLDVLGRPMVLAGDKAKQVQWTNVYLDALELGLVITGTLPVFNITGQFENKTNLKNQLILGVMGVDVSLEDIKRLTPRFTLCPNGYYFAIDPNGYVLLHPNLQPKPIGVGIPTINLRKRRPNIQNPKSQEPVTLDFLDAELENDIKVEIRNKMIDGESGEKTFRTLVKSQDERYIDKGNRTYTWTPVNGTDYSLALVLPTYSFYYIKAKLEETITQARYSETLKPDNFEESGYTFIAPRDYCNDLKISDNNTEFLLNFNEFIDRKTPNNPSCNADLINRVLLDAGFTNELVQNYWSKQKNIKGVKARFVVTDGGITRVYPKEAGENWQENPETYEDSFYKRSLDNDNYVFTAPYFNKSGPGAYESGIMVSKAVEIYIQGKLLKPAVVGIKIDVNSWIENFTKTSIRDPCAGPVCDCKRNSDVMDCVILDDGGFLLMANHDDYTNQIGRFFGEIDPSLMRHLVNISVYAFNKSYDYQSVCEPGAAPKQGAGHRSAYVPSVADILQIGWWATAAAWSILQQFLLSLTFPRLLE
T3 sequence (P54289 957-1103 partner): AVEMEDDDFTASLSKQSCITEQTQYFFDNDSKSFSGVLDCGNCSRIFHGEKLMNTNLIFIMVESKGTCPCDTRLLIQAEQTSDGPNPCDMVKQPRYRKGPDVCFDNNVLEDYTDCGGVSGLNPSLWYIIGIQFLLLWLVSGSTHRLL
T3 sequence (Q02641 whole entry partner): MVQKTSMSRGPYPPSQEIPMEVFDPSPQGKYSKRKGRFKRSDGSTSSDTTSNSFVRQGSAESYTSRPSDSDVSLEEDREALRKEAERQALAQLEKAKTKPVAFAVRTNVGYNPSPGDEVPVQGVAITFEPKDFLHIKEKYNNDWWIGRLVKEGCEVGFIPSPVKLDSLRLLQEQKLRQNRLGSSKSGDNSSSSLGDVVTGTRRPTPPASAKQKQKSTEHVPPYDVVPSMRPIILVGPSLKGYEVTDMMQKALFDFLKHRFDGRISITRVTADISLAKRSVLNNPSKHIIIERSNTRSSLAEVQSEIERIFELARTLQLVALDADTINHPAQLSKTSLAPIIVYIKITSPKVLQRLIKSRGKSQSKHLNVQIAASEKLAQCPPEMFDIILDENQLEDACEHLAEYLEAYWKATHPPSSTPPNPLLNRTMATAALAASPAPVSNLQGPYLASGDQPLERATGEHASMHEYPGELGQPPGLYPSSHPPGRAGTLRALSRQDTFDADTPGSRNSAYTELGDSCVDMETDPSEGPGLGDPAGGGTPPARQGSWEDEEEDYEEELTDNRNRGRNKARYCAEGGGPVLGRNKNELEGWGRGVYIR

Regarding `CC(=O)N1CCN(NC(=O)c2ccc(F)cc2)CC1.O` [test compound, N-(4-Acetyl-1-piperazinyl)-p-fluorobenzamide monohydrate], in assay [1], the “effect on α1E channel current” value is “almost no effect”. Also, the “effect on α1A channel current” value in assay [2] is “almost no effect”. The “effect on α1B channel current” value in assay [3] (100 nM test compound, 0 mV, 200 ms test pulse, Xenopus oocyte) is listed as “increase in the current”. The “influence on the voltage-dependency of α1B channel activation/inactivation” value in assay [3] (100 nM test compound, varied depolarization stimulating potential and steady inactive state) is on record as “almost no influence”. The “α1B channel current after return into basal solution and washing” value in assay [3] (after 100 nM test compound, washed) is given as “fell to the same level as that before the treatment”. Moreover, the “potentiation of the current amplitude, channel specificity and concentration range” value in assay [3] (various concentrations, compared with α1A and α1E channels) is “α1B channel-specific potentiation of the current amplitude in a relatively narrow concentration range”.
